Measurements: ChEMBL document CHEMBL1201862, “PubChem BioAssay data set” (2004)
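Grown in 96-well plates, cells were treated for 48 hours with each compound at five concentrations. Insufficient inhibition: endpoint recorded as highest concentration tested. GI50 is the concentration that inhibits growth by half.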 The source made the active and inactive calls. Rule as the data show it: active = GI50 up to about 1.1 µM and inactive = higher.

Experiments:
Assay in all cases: DTP human tumour cell line panel, 48 h
786-0 = tested on: 786-0
A498 = tested on: A498
A549 = tested on: A549
ACHN = tested on: ACHN
BT-549 = tested on: BT-549
CAKI-1 = tested on: CAKI-1
CCRF-CEM = tested on: CCRF-CEM
COLO 205 = tested on: COLO 205
DU-145 = tested on: DU-145
EKVX = tested on: EKVX
HCC 2998 = tested on: HCC 2998
HCT-116 = tested on: HCT-116
HCT-15 = tested on: HCT-15
HL-60 = tested on: HL-60
HOP-62 = tested on: HOP-62
HOP-92 = tested on: HOP-92
HT-29 = tested on: HT-29
Hs-578T = tested on: Hs-578T
IGROV-1 = tested on: IGROV-1
K562 = tested on: K562
KM12 = tested on: KM12
LOX IMVI = tested on: LOX IMVI
M14 = tested on: M14
MCF7 = tested on: MCF7
MDA-MB-231 = tested on: MDA-MB-231
MDA-MB-435 = tested on: MDA-MB-435
MDA-N = tested on: MDA-N
MOLT-4 = tested on: MOLT-4
NCI-H226 = tested on: NCI-H226
NCI-H23 = tested on: NCI-H23
NCI-H460 = tested on: NCI-H460
NCI-H522 = tested on: NCI-H522
NCI/ADR-RES = tested on: NCI/ADR-RES
OVCAR-3 = tested on: OVCAR-3
OVCAR-4 = tested on: OVCAR-4
OVCAR-5 = tested on: OVCAR-5
OVCAR-8 = tested on: OVCAR-8
PC-3 = tested on: PC-3
RPMI-8226 = tested on: RPMI-8226
RXF 393 = tested on: RXF 393
SF-268 = tested on: SF-268
SF-295 = tested on: SF-295
SF-539 = tested on: SF-539
SK-MEL-28 = tested on: SK-MEL-28
SK-MEL-2 = tested on: SK-MEL-2
SK-MEL-5 = tested on: SK-MEL-5
SK-OV-3 = tested on: SK-OV-3
SN12C = tested on: SN12C
SNB-19 = tested on: SNB-19
SNB-75 = tested on: SNB-75
SR = tested on: SR
SW-620 = tested on: SW-620
T47D = tested on: T47D
TK-10 = tested on: TK-10
U-251 = tested on: U-251
UACC-257 = tested on: UACC-257
UACC-62 = tested on: UACC-62
UO-31 = tested on: UO-31
Malme-3M = tested on: Malme-3M

## C=C1CC2(CCOc3ccc(Cl)cc32)OC1=O (stereo unspecified)
786-0
  GI50: 2.15 µM (inactive)
A498
  GI50: 11.9 µM (inactive)
A549
  GI50: 13.5 µM (inactive)
ACHN
  GI50: 4.86 µM (inactive)
BT-549
  GI50: 0.352 µM (active)
CAKI-1
  GI50: 2.33 µM (inactive)
CCRF-CEM
  GI50: 1.45 µM (inactive)
COLO 205
  GI50: 1.64 µM (inactive)
DU-145
  GI50: 12.7 µM (inactive)
EKVX
  GI50: 3.42 µM (inactive)
HCC 2998
  GI50: 22.5 µM (inactive)
HCT-116
  GI50: 1.63 µM (inactive)
HCT-15
  GI50: 0.935 µM
HL-60
  GI50: 1.93 µM (inactive)
HOP-62
  GI50: 5.35 µM (inactive)
HOP-92
  GI50: 3.48 µM (inactive)
HT-29
  GI50: 5.86 µM (inactive)
Hs-578T
  GI50: 0.979 µM (active)
IGROV-1
  GI50: 8.57 µM (inactive)
K562
  GI50: 2.55 µM (inactive)
KM12
  GI50: 13.7 µM (inactive)
LOX IMVI
  GI50: 2.44 µM (inactive)
M14
  GI50: 2.54 µM (inactive)
MCF7
  GI50: 0.598 µM (active)
MDA-MB-231
  GI50: 6.44 µM (inactive)
MDA-MB-435
  GI50: 2.82 µM (inactive)
MDA-N
  GI50: 3.53 µM (inactive)
MOLT-4
  GI50: 0.805 µM (active)
NCI-H226
  GI50: 2.81 µM (inactive)
NCI-H23
  GI50: 5.22 µM (inactive)
NCI-H460
  GI50: 3.61 µM (inactive)
NCI-H522
  GI50: 0.885 µM (active)
NCI/ADR-RES
  GI50: 6.47 µM (inactive)
OVCAR-3
  GI50: 1.39 µM (inactive)
OVCAR-4
  GI50: 1.91 µM (inactive)
OVCAR-5
  GI50: 10.6 µM (inactive)
OVCAR-8
  GI50: 4.59 µM (inactive)
PC-3
  GI50: 1.95 µM (inactive)
RPMI-8226
  GI50: 0.667 µM (active)
RXF 393
  GI50: 2.23 µM (inactive)
SF-268
  GI50: 6.22 µM (inactive)
SF-295
  GI50: 7.24 µM (inactive)
SF-539
  GI50: 0.284 µM (active)
SK-MEL-28
  GI50: 8.38 µM (inactive)
SK-MEL-2
  GI50: 1.86 µM (inactive)
SK-MEL-5
  GI50: 5.02 µM (inactive)
SK-OV-3
  GI50: 13.1 µM (inactive)
SN12C
  GI50: 7.69 µM (inactive)
SNB-19
  GI50: 13.1 µM (inactive)
SNB-75
  GI50: 3.61 µM (inactive)
SR
  GI50: 2.37 µM (inactive)
SW-620
  GI50: 1.26 µM (inactive)
T47D
  GI50: 4.93 µM (inactive)
TK-10
  GI50: 5.77 µM (inactive)
U-251
  GI50: 8.63 µM (inactive)
UACC-257
  GI50: 5.74 µM (inactive)
UACC-62
  GI50: 13.1 µM (inactive)
UO-31
  GI50: 2.83 µM (inactive)

## Nn1c(Nc2ccc(S(=O)(=O)Nc3ncccn3)cc2)nnc(/C=C/c2c(O)ccc3ccccc23)c1=O
786-0
  GI50: 26.6 µM (inactive)
A498
  GI50: 25.2 µM (inactive)
A549
  GI50: 46 µM (inactive)
ACHN
  GI50: 25.8 µM (inactive)
BT-549
  GI50: 22.3 µM (inactive)
CAKI-1
  GI50: 26.7 µM (inactive)
CCRF-CEM
  GI50: 15.8 µM (inactive)
DU-145
  GI50: 33.5 µM (inactive)
EKVX
  GI50: 24.2 µM (inactive)
HCC 2998
  GI50: 23.3 µM (inactive)
HCT-116
  GI50: 21.1 µM (inactive)
HCT-15
  GI50: 27.3 µM
HL-60
  GI50: 20.6 µM (inactive)
HOP-62
  GI50: 33.6 µM (inactive)
HOP-92
  GI50: 66.2 µM (inactive)
HT-29
  GI50: 33.9 µM (inactive)
Hs-578T
  GI50: 48.4 µM (inactive)
IGROV-1
  GI50: 27.5 µM (inactive)
K562
  GI50: 29 µM (inactive)
LOX IMVI
  GI50: 30.3 µM (inactive)
M14
  GI50: 29 µM (inactive)
MCF7
  GI50: 21.6 µM (inactive)
MDA-MB-231
  GI50: 21.8 µM (inactive)
MDA-MB-435
  GI50: 25.2 µM (inactive)
MDA-N
  GI50: 31.4 µM (inactive)
MOLT-4
  GI50: > 100 µM (inactive)
Malme-3M
  GI50: 30.8 µM (inactive)
NCI-H23
  GI50: 19.8 µM (inactive)
NCI-H460
  GI50: 23.3 µM (inactive)
NCI-H522
  GI50: 34.3 µM (inactive)
NCI/ADR-RES
  GI50: 32.7 µM (inactive)
OVCAR-3
  GI50: 15.1 µM (inactive)
OVCAR-4
  GI50: 24.5 µM (inactive)
OVCAR-5
  GI50: 32.7 µM (inactive)
OVCAR-8
  GI50: 34.6 µM (inactive)
PC-3
  GI50: 27.7 µM (inactive)
RPMI-8226
  GI50: 34.1 µM (inactive)
RXF 393
  GI50: 26.2 µM (inactive)
SF-268
  GI50: 31.6 µM (inactive)
SK-MEL-2
  GI50: 18.5 µM (inactive)
SN12C
  GI50: 28.3 µM (inactive)
SNB-19
  GI50: 46.9 µM (inactive)
SNB-75
  GI50: 22.2 µM (inactive)
SR
  GI50: 23.4 µM (inactive)
SW-620
  GI50: 31.8 µM (inactive)
T47D
  GI50: 23.8 µM (inactive)
TK-10
  GI50: 26.8 µM (inactive)
U-251
  GI50: 31.9 µM (inactive)
UACC-257
  GI50: 20.1 µM (inactive)
UACC-62
  GI50: 20.5 µM (inactive)
UO-31
  GI50: 30.5 µM (inactive)

## COC(=O)C1(C)CCc2c(ccc3ccccc23)C1=O (stereo unspecified)
786-0
  GI50: 65 µM (inactive)
A498
  GI50: 32.7 µM (inactive)
A549
  GI50: 39.3 µM (inactive)
ACHN
  GI50: 55.1 µM (inactive)
BT-549
  GI50: 27.1 µM (inactive)
CAKI-1
  GI50: 16.1 µM (inactive)
CCRF-CEM
  GI50: 37.3 µM (inactive)
COLO 205
  GI50: 21.3 µM (inactive)
DU-145
  GI50: 51.9 µM (inactive)
EKVX
  GI50: 31.8 µM (inactive)
HCC 2998
  GI50: 36.1 µM (inactive)
HCT-116
  GI50: 33.7 µM (inactive)
HCT-15
  GI50: 34.5 µM
HL-60
  GI50: 35.9 µM (inactive)
HOP-62
  GI50: 78.7 µM (inactive)
HOP-92
  GI50: 45.4 µM (inactive)
HT-29
  GI50: 40.2 µM (inactive)
Hs-578T
  GI50: 47.2 µM (inactive)
IGROV-1
  GI50: 26.5 µM (inactive)
K562
  GI50: 52.4 µM (inactive)
KM12
  GI50: 25.8 µM (inactive)
LOX IMVI
  GI50: 36.1 µM (inactive)
M14
  GI50: 29.9 µM (inactive)
MCF7
  GI50: 30.6 µM (inactive)
MDA-MB-231
  GI50: 49.1 µM (inactive)
MDA-MB-435
  GI50: 34.4 µM (inactive)
MDA-N
  GI50: 27 µM (inactive)
MOLT-4
  GI50: 34.8 µM (inactive)
Malme-3M
  GI50: 27.8 µM (inactive)
NCI-H23
  GI50: 51.6 µM (inactive)
NCI-H460
  GI50: 40.5 µM (inactive)
NCI-H522
  GI50: 24.9 µM (inactive)
NCI/ADR-RES
  GI50: 34.8 µM (inactive)
OVCAR-3
  GI50: 30.1 µM (inactive)
OVCAR-5
  GI50: > 100 µM (inactive)
OVCAR-8
  GI50: 40.1 µM (inactive)
PC-3
  GI50: 40.9 µM (inactive)
RPMI-8226
  GI50: 23.2 µM (inactive)
RXF 393
  GI50: 25 µM (inactive)
SF-268
  GI50: 32.1 µM (inactive)
SF-295
  GI50: 39.7 µM (inactive)
SF-539
  GI50: 86.7 µM (inactive)
SK-MEL-28
  GI50: 64.7 µM (inactive)
SK-MEL-2
  GI50: 26.8 µM (inactive)
SK-MEL-5
  GI50: 18.3 µM (inactive)
SK-OV-3
  GI50: 71.1 µM (inactive)
SN12C
  GI50: 44.7 µM (inactive)
SNB-19
  GI50: 45.2 µM (inactive)
SNB-75
  GI50: 44.8 µM (inactive)
SR
  GI50: 39.4 µM (inactive)
SW-620
  GI50: 39 µM (inactive)
T47D
  GI50: 24.5 µM (inactive)
TK-10
  GI50: 31 µM (inactive)
U-251
  GI50: 46.5 µM (inactive)
UACC-257
  GI50: 24.5 µM (inactive)
UACC-62
  GI50: 32.4 µM (inactive)
UO-31
  GI50: 33.3 µM (inactive)
